#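 A five-concentration, 48-hour dose response in 96-well plates underlies each endpoint, interpolated linearly between surrounding concentrations. The concentration for 50% growth inhibition is given as GI50. Definition used: TGI = concentration required for complete inhibition of growth.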
# Tests used:
# Test in all cases: inhibition of tumour cell growth, NCI panel, 48 h
# 786-0 renal = tested on: 786-0 renal
# A549 NSCLC = tested on: A549 NSCLC
# ACHN renal = tested on: ACHN renal
# CAKI-1 renal = tested on: CAKI-1 renal
# CCRF-CEM leukemia = tested on: CCRF-CEM leukemia
# DMS 114 small cell lung = tested on: DMS 114 small cell lung
# DU-145 prostate = tested on: DU-145 prostate
# EKVX NSCLC = tested on: EKVX NSCLC
# HCT-116 colon = tested on: HCT-116 colon
# HCT-15 colon = tested on: HCT-15 colon
# HL-60(TB) leukemia = tested on: HL-60(TB) leukemia
# HOP-62 NSCLC = tested on: HOP-62 NSCLC
# IGROV1 ovarian = tested on: IGROV1 ovarian
# K-562 leukemia = tested on: K-562 leukemia
# M14 melanoma = tested on: M14 melanoma
# MALME-3M melanoma = tested on: MALME-3M melanoma
# MCF7 breast = tested on: MCF7 breast
# MDA-MB-231 breast = tested on: MDA-MB-231 breast
# MDA-MB-435 = tested on: MDA-MB-435
# MDA-N = tested on: MDA-N
# MOLT-4 leukemia = tested on: MOLT-4 leukemia
# NCI/ADR-RES ovarian = tested on: NCI/ADR-RES ovarian
# OVCAR-3 ovarian = tested on: OVCAR-3 ovarian
# OVCAR-4 ovarian = tested on: OVCAR-4 ovarian
# OVCAR-5 ovarian = tested on: OVCAR-5 ovarian
# PC-3 prostate = tested on: PC-3 prostate
# RPMI-8226 leukemia = tested on: RPMI-8226 leukemia
# SF-539 CNS = tested on: SF-539 CNS
# SK-MEL-2 melanoma = tested on: SK-MEL-2 melanoma
# SK-MEL-28 melanoma = tested on: SK-MEL-28 melanoma
# SK-MEL-5 melanoma = tested on: SK-MEL-5 melanoma
# SNB-19 CNS = tested on: SNB-19 CNS
# SNB-75 CNS = tested on: SNB-75 CNS
# SW-620 colon = tested on: SW-620 colon
# T-47D breast = tested on: T-47D breast
# UO-31 renal = tested on: UO-31 renal
# COLO 205 colon = tested on: COLO 205 colon
# DLD-1 colon = tested on: DLD-1 colon
# HOP-92 NSCLC = tested on: HOP-92 NSCLC
# HT29 colon = tested on: HT29 colon
# KM12 colon = tested on: KM12 colon
# LOX IMVI melanoma = tested on: LOX IMVI melanoma
# LXFL 529 NSCLC = tested on: LXFL 529 NSCLC
# M19-MEL melanoma = tested on: M19-MEL melanoma
# NCI-H226 lung = tested on: NCI-H226 lung
# NCI-H23 lung = tested on: NCI-H23 lung
# NCI-H460 lung = tested on: NCI-H460 lung
# NCI-H522 lung = tested on: NCI-H522 lung
# OVCAR-8 ovarian = tested on: OVCAR-8 ovarian
# SF-268 CNS = tested on: SF-268 CNS
# SF-295 CNS = tested on: SF-295 CNS
# SK-OV-3 ovarian = tested on: SK-OV-3 ovarian
# SN12C renal = tested on: SN12C renal
# SNB-78 CNS = tested on: SNB-78 CNS
# SR leukemia = tested on: SR leukemia
# U251 CNS = tested on: U251 CNS
# UACC-62 melanoma = tested on: UACC-62 melanoma
# A498 renal = tested on: A498 renal
# DMS 273 small cell lung = tested on: DMS 273 small cell lung
# HCC-2998 colon = tested on: HCC-2998 colon
# KM20L2 colon = tested on: KM20L2 colon
# TK-10 renal = tested on: TK-10 renal
# UACC-257 melanoma = tested on: UACC-257 melanoma
smiles,measurement,setting,value
CCSC(=O)N1c2ccc(OC)cc2C=CC1C#N (stereo not drawn),TGI,786-0 renal,121 µM
same,TGI,A549 NSCLC,> 1000 µM
same,TGI,ACHN renal,> 1000 µM
same,TGI,CAKI-1 renal,737 µM
same,TGI,CCRF-CEM leukemia,> 1000 µM
same,TGI,DMS 114 small cell lung,1.02 µM
same,TGI,DU-145 prostate,0.0105 µM
same,TGI,EKVX NSCLC,> 1000 µM
same,TGI,HCT-116 colon,0.0382 µM
same,GI50,HCT-15 colon,0.00168 µM
same,TGI,HL-60(TB) leukemia,0.00522 µM
same,TGI,HOP-62 NSCLC,0.0467 µM
same,TGI,IGROV1 ovarian,> 1000 µM
same,TGI,K-562 leukemia,> 1000 µM
same,TGI,M14 melanoma,> 1000 µM
same,TGI,MALME-3M melanoma,> 1000 µM
same,GI50,MCF7 breast,0.000805 µM
same,TGI,MCF7 breast,> 1000 µM
same,GI50,MDA-MB-231 breast,0.529 µM
same,GI50,MDA-MB-435,0.000369 µM
same,TGI,MDA-MB-435,0.00553 µM
same,GI50,MDA-N,0.0003 µM
same,TGI,MDA-N,0.00138 µM
same,TGI,MOLT-4 leukemia,> 1000 µM
same,GI50,NCI/ADR-RES ovarian,0.00254 µM
same,TGI,OVCAR-3 ovarian,0.0062 µM
same,TGI,OVCAR-4 ovarian,> 1000 µM
same,GI50,OVCAR-5 ovarian,0.596 µM
same,TGI,OVCAR-5 ovarian,> 1000 µM
same,GI50,PC-3 prostate,0.214 µM
same,TGI,PC-3 prostate,> 1000 µM
same,TGI,RPMI-8226 leukemia,689 µM
same,TGI,SF-539 CNS,0.00582 µM
same,TGI,SK-MEL-2 melanoma,7.43 µM
same,TGI,SK-MEL-28 melanoma,> 1000 µM
same,TGI,SK-MEL-5 melanoma,0.224 µM
same,GI50,SNB-19 CNS,6.08 µM
same,TGI,SNB-19 CNS,> 1000 µM
same,GI50,SNB-75 CNS,0.231 µM
same,TGI,SNB-75 CNS,> 1000 µM
same,TGI,SW-620 colon,199 µM
same,TGI,T-47D breast,734 µM
same,TGI,UO-31 renal,> 1000 µM
CC(C)(c1cn(Cc2ccccc2)c2ccccc12)c1cn(Cc2ccccc2)c2ccccc12,TGI,786-0 renal,> 100 µM
same,TGI,A549 NSCLC,> 100 µM
same,TGI,ACHN renal,> 100 µM
same,TGI,CAKI-1 renal,> 100 µM
same,TGI,CCRF-CEM leukemia,> 100 µM
same,TGI,COLO 205 colon,> 100 µM
same,TGI,DLD-1 colon,> 100 µM
same,TGI,DMS 114 small cell lung,> 100 µM
same,TGI,EKVX NSCLC,> 100 µM
same,TGI,HCT-116 colon,> 100 µM
same,TGI,HCT-15 colon,> 100 µM
same,TGI,HL-60(TB) leukemia,> 100 µM
same,TGI,HOP-62 NSCLC,> 100 µM
same,TGI,HOP-92 NSCLC,> 100 µM
same,TGI,HT29 colon,> 100 µM
same,TGI,IGROV1 ovarian,> 100 µM
same,TGI,K-562 leukemia,> 100 µM
same,TGI,KM12 colon,> 100 µM
same,TGI,LOX IMVI melanoma,> 100 µM
same,TGI,LXFL 529 NSCLC,> 100 µM
same,TGI,M14 melanoma,> 100 µM
same,TGI,M19-MEL melanoma,> 100 µM
same,TGI,MOLT-4 leukemia,> 100 µM
same,TGI,NCI-H226 lung,> 100 µM
same,TGI,NCI-H23 lung,> 100 µM
same,TGI,NCI-H460 lung,> 100 µM
same,TGI,NCI-H522 lung,> 100 µM
same,TGI,OVCAR-3 ovarian,> 100 µM
same,TGI,OVCAR-4 ovarian,> 100 µM
same,TGI,OVCAR-5 ovarian,> 100 µM
same,TGI,OVCAR-8 ovarian,> 100 µM
same,TGI,RPMI-8226 leukemia,> 100 µM
same,TGI,SF-268 CNS,> 100 µM
same,TGI,SF-295 CNS,> 100 µM
same,TGI,SF-539 CNS,> 100 µM
same,TGI,SK-MEL-5 melanoma,> 100 µM
same,TGI,SK-OV-3 ovarian,> 100 µM
same,TGI,SN12C renal,5.07 µM
same,TGI,SNB-75 CNS,99.6 µM
same,TGI,SNB-78 CNS,> 100 µM
same,TGI,SR leukemia,> 100 µM
same,TGI,SW-620 colon,> 100 µM
same,TGI,U251 CNS,> 100 µM
same,TGI,UACC-62 melanoma,> 100 µM
CC12CCC(=O)N1c1cnccc1N2 (stereo not drawn),TGI,A498 renal,> 100 µM
same,TGI,A549 NSCLC,> 100 µM
same,TGI,ACHN renal,> 100 µM
same,TGI,CAKI-1 renal,> 100 µM
same,TGI,CCRF-CEM leukemia,> 100 µM
same,TGI,COLO 205 colon,> 100 µM
same,TGI,DLD-1 colon,> 100 µM
same,TGI,DMS 114 small cell lung,> 100 µM
same,TGI,DMS 273 small cell lung,> 100 µM
same,TGI,EKVX NSCLC,> 100 µM
same,TGI,HCC-2998 colon,> 100 µM
same,TGI,HCT-116 colon,> 100 µM
same,TGI,HCT-15 colon,> 100 µM
same,TGI,HL-60(TB) leukemia,> 100 µM
same,TGI,HOP-62 NSCLC,> 100 µM
same,TGI,HOP-92 NSCLC,> 100 µM
same,TGI,HT29 colon,> 100 µM
same,TGI,IGROV1 ovarian,> 100 µM
same,TGI,K-562 leukemia,> 100 µM
same,TGI,KM12 colon,> 100 µM
same,TGI,KM20L2 colon,> 100 µM
same,TGI,LXFL 529 NSCLC,> 100 µM
same,TGI,M14 melanoma,> 100 µM
same,TGI,MALME-3M melanoma,> 100 µM
same,TGI,MOLT-4 leukemia,> 100 µM
same,TGI,NCI-H23 lung,> 100 µM
same,TGI,NCI-H460 lung,> 100 µM
same,TGI,NCI-H522 lung,> 100 µM
same,TGI,OVCAR-3 ovarian,> 100 µM
same,TGI,OVCAR-4 ovarian,> 100 µM
same,TGI,OVCAR-5 ovarian,> 100 µM
same,TGI,OVCAR-8 ovarian,> 100 µM
same,TGI,RPMI-8226 leukemia,> 100 µM
same,TGI,SF-268 CNS,> 100 µM
same,TGI,SF-295 CNS,> 100 µM
same,TGI,SF-539 CNS,> 100 µM
same,TGI,SK-MEL-2 melanoma,> 100 µM
same,TGI,SK-MEL-28 melanoma,> 100 µM
same,TGI,SK-MEL-5 melanoma,> 100 µM
same,TGI,SK-OV-3 ovarian,> 100 µM
same,TGI,SN12C renal,> 100 µM
same,TGI,SNB-19 CNS,> 100 µM
same,TGI,SNB-75 CNS,> 100 µM
same,TGI,SNB-78 CNS,> 100 µM
same,TGI,SR leukemia,> 100 µM
same,TGI,SW-620 colon,> 100 µM
same,TGI,TK-10 renal,> 100 µM
same,TGI,U251 CNS,> 100 µM
same,TGI,UACC-257 melanoma,> 100 µM
same,TGI,UACC-62 melanoma,> 100 µM
same,TGI,UO-31 renal,> 100 µM

# Reference: PubChem BioAssay (NCI)
